Measurements reported in paper PMC12775434, “Ultra-large virtual screening unveils potent agonists of the neuromodulatory orphan receptor GPR139” (Nature Communications, 2025).
Values joined by “and” are separate entries in the source; they are usually repeats but may differ in a detail not shown here. Identical values can stand only once. Like-named read-outs stand apart in the source and are kept apart here.

Target: T1, GPR139 (Homo sapiens, UniProt Q6DWJ6)
T1 sequence (Q6DWJ6 1-353): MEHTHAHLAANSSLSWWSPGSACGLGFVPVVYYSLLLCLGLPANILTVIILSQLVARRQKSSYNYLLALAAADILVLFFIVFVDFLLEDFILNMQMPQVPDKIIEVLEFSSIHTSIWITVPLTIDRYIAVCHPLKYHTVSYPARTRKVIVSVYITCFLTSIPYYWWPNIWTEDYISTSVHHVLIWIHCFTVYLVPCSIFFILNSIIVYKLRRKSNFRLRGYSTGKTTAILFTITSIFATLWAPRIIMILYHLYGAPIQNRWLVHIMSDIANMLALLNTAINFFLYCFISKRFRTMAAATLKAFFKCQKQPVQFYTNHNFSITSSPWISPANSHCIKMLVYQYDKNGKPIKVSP
Experiment: Ca2+ mobilization assay, agonist mode, stable GPR139-CHOk1 cell line
Format: cell-based
Conditions: for Emax: normalized to Lundbeck Cmp 1a, read-out: Emax (%) Ca2+
Method in brief: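 Agonist activity of compounds is assessed in stably transfected CHO-K1 cells using the calcium dye Fluo-4 at 37 °C in HEPES-buffered HBSS (pH 7.4). Efficacy is expressed relative to the reference agonist Lundbeck Cmp 1a, set as 100%.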

[1] = Agonist mode, individual replicates (Supplementary Figure 4)
[2] = Supplementary Table 2, mean ± SEM, read-out: pEC50 Ca2+ (converted)
[3] = Supplementary Table 2, mean ± SEM
[4] = log [Compound] M = -4.5, individual replicate columns
[5] = log [Compound] M = -5.0, individual replicate columns
[6] = log [Compound] M = -5.5, individual replicate columns
[7] = log [Compound] M = -6.0, individual replicate columns
[8] = log [Compound] M = -6.5, individual replicate columns
[9] = log [Compound] M = -7.0, individual replicate columns
[10] = log [Compound] M = -7.5, individual replicate columns
[11] = log [Compound] M = -8.0, individual replicate columns
[12] = log [Compound] M = -8.5, individual replicate columns
[13] = log [Compound] M = -9.0, individual replicate columns
[14] = 0.1 µM, individual replicates (Supplementary Figure 3)
[15] = 1 µM, individual replicates (Supplementary Figure 3)
[16] = 10 µM, individual replicates (Supplementary Figure 3)
[17] = Agonist mode, individual replicates (Supplementary Figure 1)
[18] = GPR139-CHOk1, read-out: EC50, Ca2+ mobilization
[19] = log [Compound] M -4.5, replicate experiments
[20] = log [Compound] M -5.0, replicate experiments
[21] = log [Compound] M -5.5, replicate experiments
[22] = log [Compound] M -6.0, replicate experiments
[23] = log [Compound] M -6.5, replicate experiments
[24] = log [Compound] M -7.0, replicate experiments
[25] = log [Compound] M -7.5, replicate experiments
[26] = log [Compound] M -8.0, replicate experiments
[27] = log [Compound] M -8.5, replicate experiments
[28] = log [Compound] M -9.0, replicate experiments
[29] = primary screen, 10 µM compound, agonist mode, three columns = independent experiments

Row | SMILES | Ca2+ signal (% of Cmp 1a) [1] | EC50 [2] [nM] | Emax [3] [%] | Ca2+ signal (% of Cmp 1a) [4] | Ca2+ signal (% of Cmp 1a) [5] | Ca2+ signal (% of Cmp 1a) [14] | Ca2+ signal (% of Cmp 1a) [15] | Ca2+ signal (% of Cmp 1a) [16] | Ca2+ signal (% of Cmp 1a) [17] | Ca2+ signal (% of Cmp 1a) [19] | Ca2+ signal (% of Cmp 1a) [20] | Ca2+ signal (% of Cmp 1a) [21] | Ca2+ signal (% of Cmp 1a) [22] | Ca2+ signal (% of Cmp 1a) [23] | Ca2+ signal (% of Cmp 1a) [24] | Ca2+ signal (% of Cmp 1a) [25] | Ca2+ signal (% of Cmp 1a) [26] | Ca2+ signal (% of Cmp 1a) [27] | Ca2+ signal (% of Cmp 1a) [28] | Ca2+ signal (% of Cmp 1a) [29] | also measured
1 | COc1cc(-c2nc(CC(=O)NC(C)c3ccccc3)no2)ccn1 (stereo not shown) [Compound 1.7, COC1=NC=CC(C2=NC(CC(NC(C3=CC=CC=C3)C)=O)=NO2)=C1] | 105 % of Cmp 1a and 108 % of Cmp 1a and 111 % of Cmp 1a | 200 | 113 ± 9 | 109 % of Cmp 1a and 102 % of Cmp 1a and 120 % of Cmp 1a | 102 % of Cmp 1a and 110 % of Cmp 1a and 134 % of Cmp 1a | – | – | – | – | – | – | – | – | – | – | – | – | – | – | – | Ca2+ signal (% of Cmp 1a) [6]: 95 % of Cmp 1a and 141 % of Cmp 1a and 154 % of Cmp 1a; Ca2+ signal (% of Cmp 1a) [7]: 70 % of Cmp 1a and 89 % of Cmp 1a and 113 % of Cmp 1a; Ca2+ signal (% of Cmp 1a) [8]: 61 % of Cmp 1a and 84 % of Cmp 1a and 68 % of Cmp 1a; Ca2+ signal (% of Cmp 1a) [9]: 40 % of Cmp 1a and 48 % of Cmp 1a and 53 % of Cmp 1a; Ca2+ signal (% of Cmp 1a) [10]: 13 % of Cmp 1a and 22 % of Cmp 1a and 34 % of Cmp 1a; Ca2+ signal (% of Cmp 1a) [11]: 1.88 % of Cmp 1a and 6 % of Cmp 1a and 10 % of Cmp 1a; Ca2+ signal (% of Cmp 1a) [12]: 4.28 % of Cmp 1a and 11 % of Cmp 1a and 7 % of Cmp 1a; Ca2+ signal (% of Cmp 1a) [13]: -0.46 % of Cmp 1a and 10 % of Cmp 1a and 7 % of Cmp 1a
2 | Cc1cc(-c2nc(CC(=O)NC(C)c3ccccc3)no2)n(C)n1 (stereo not shown) [Compound 1.16, CC(C1=CC=CC=C1)NC(CC2=NOC(C3=CC(C)=NN3C)=N2)=O] | 103 % of Cmp 1a and 82 % of Cmp 1a and 85 % of Cmp 1a | 631 | 93 ± 11 | 93 % of Cmp 1a and 107 % of Cmp 1a and 110 % of Cmp 1a and 60 % of Cmp 1a | 86 % of Cmp 1a and 100 % of Cmp 1a and 83 % of Cmp 1a and 67 % of Cmp 1a | – | – | – | – | – | – | – | – | – | – | – | – | – | – | – | Ca2+ signal (% of Cmp 1a) [6]: 73 % of Cmp 1a and 90 % of Cmp 1a and 92 % of Cmp 1a and 46 % of Cmp 1a; Ca2+ signal (% of Cmp 1a) [7]: 52 % of Cmp 1a and 66 % of Cmp 1a and 72 % of Cmp 1a and 20 % of Cmp 1a; Ca2+ signal (% of Cmp 1a) [8]: 27 % of Cmp 1a and 50 % of Cmp 1a and 60 % of Cmp 1a and -0.5 % of Cmp 1a; Ca2+ signal (% of Cmp 1a) [9]: 9 % of Cmp 1a and 39 % of Cmp 1a and 26 % of Cmp 1a and -9.5 % of Cmp 1a; Ca2+ signal (% of Cmp 1a) [10]: 0.333 % of Cmp 1a and 7 % of Cmp 1a and 17 % of Cmp 1a and 1.5 % of Cmp 1a; Ca2+ signal (% of Cmp 1a) [11]: -3 % of Cmp 1a (2×) and -1 % of Cmp 1a and 9 % of Cmp 1a; Ca2+ signal (% of Cmp 1a) [12]: 0 % of Cmp 1a and -5 % of Cmp 1a and 15 % of Cmp 1a and -2.5 % of Cmp 1a; Ca2+ signal (% of Cmp 1a) [13]: 1.67 % of Cmp 1a and -3 % of Cmp 1a and 20 % of Cmp 1a and -7 % of Cmp 1a
3 | COC(=O)c1cc(NC(=O)NC(C)c2cccc(F)c2F)ccc1C (stereo not shown) [Compound 2, COC(=O)C=1C=C(NC(=O)NC(C)C=2C=CC=C(F)C2F)C=CC1C] | – | – | 83 ± 6 | – | – | 18.1 % of Cmp 1a and 15.9 % of Cmp 1a | 65.0 % of Cmp 1a and 52.8 % of Cmp 1a | 86.8 % of Cmp 1a and 54.5 % of Cmp 1a | 81 % of Cmp 1a and 65 % of Cmp 1a and 84 % of Cmp 1a | 74 % of Cmp 1a and 103 % of Cmp 1a and 90 % of Cmp 1a | 60 % of Cmp 1a and 92 % of Cmp 1a and 78 % of Cmp 1a | 65 % of Cmp 1a and 88 % of Cmp 1a and 71 % of Cmp 1a | 66 % of Cmp 1a and 74 % of Cmp 1a and 68 % of Cmp 1a | 25 % of Cmp 1a and 58 % of Cmp 1a and 38 % of Cmp 1a | 16 % of Cmp 1a and 20 % of Cmp 1a and 28 % of Cmp 1a | -9 % of Cmp 1a and -8 % of Cmp 1a and 6 % of Cmp 1a | -12 % of Cmp 1a and -7 % of Cmp 1a and 2.84 % of Cmp 1a | -1.88 % of Cmp 1a and 9 % of Cmp 1a and 21 % of Cmp 1a | -14 % of Cmp 1a and 6 % of Cmp 1a and 7 % of Cmp 1a | 81 % of Cmp 1a and 65 % of Cmp 1a and 84 % of Cmp 1a | EC50 [18]: 320 nM
4 | Cc1noc(C(C)NC(=O)Nc2cccc(-c3ccccc3)c2)n1 (stereo not shown) [Compound 3, CC(NC(=O)NC=1C=CC=C(C1)C=2C=CC=CC2)C3=NC(C)=NO3] | – | 2510 | 70 ± 3 | – | – | 5.3 % of Cmp 1a and 10.2 % of Cmp 1a | 18.7 % of Cmp 1a and 1.8 % of Cmp 1a | 46.3 % of Cmp 1a | 55 % of Cmp 1a and 56 % of Cmp 1a and 62 % of Cmp 1a | 57 % of Cmp 1a and 72 % of Cmp 1a and 70 % of Cmp 1a | 55 % of Cmp 1a and 59 % of Cmp 1a and 65 % of Cmp 1a | 25 % of Cmp 1a and 54 % of Cmp 1a and 37 % of Cmp 1a | 11 % of Cmp 1a and 34 % of Cmp 1a and 21 % of Cmp 1a | -1.52 % of Cmp 1a and 4.42 % of Cmp 1a and 16 % of Cmp 1a | -7 % of Cmp 1a and -0.413 % of Cmp 1a and 6 % of Cmp 1a | -4.33 % of Cmp 1a and 4 % of Cmp 1a and 8 % of Cmp 1a | -1.83 % of Cmp 1a and -3.24 % of Cmp 1a and 5 % of Cmp 1a | -10 % of Cmp 1a and -2 % of Cmp 1a and 4.52 % of Cmp 1a | 0.621 % of Cmp 1a and -0.857 % of Cmp 1a and 2.53 % of Cmp 1a | 55 % of Cmp 1a and 56 % of Cmp 1a and 62 % of Cmp 1a | –
5 | Cc1noc(CNC(=O)C2(C)CCCCN2C(=O)c2ccccc2)n1 (stereo not shown) [Compound 4, CC1=NOC(CNC(=O)C2(C)CCCCN2C(=O)C=3C=CC=CC3)=N1] | – | 3980 | 100 ± 7 | – | – | -4.2 % of Cmp 1a and 0.43 % of Cmp 1a | 9.8 % of Cmp 1a and 4.1 % of Cmp 1a | 51.3 % of Cmp 1a and 47.8 % of Cmp 1a | 75 % of Cmp 1a and 80 % of Cmp 1a and 81 % of Cmp 1a | 98 % of Cmp 1a and 82 % of Cmp 1a | 75 % of Cmp 1a and 63 % of Cmp 1a | 44 % of Cmp 1a and 46 % of Cmp 1a | 13 % of Cmp 1a and 24 % of Cmp 1a | 4.41 % of Cmp 1a and 3 % of Cmp 1a | 3.62 % of Cmp 1a and -1.16 % of Cmp 1a | -4.26 % of Cmp 1a and -2.55 % of Cmp 1a | -0.711 % of Cmp 1a and -3.49 % of Cmp 1a | 5.56 % of Cmp 1a and 4.65 % of Cmp 1a | -1.86 % of Cmp 1a and -5 % of Cmp 1a | 75 % of Cmp 1a and 80 % of Cmp 1a and 81 % of Cmp 1a | –
6 | CC(NC(=O)Cn1cncc(-c2ccccc2)c1=O)c1ccccc1 (stereo not shown) [Compound 5, C[C@@H](NC(=O)CN1C=NC=C(C=2C=CC=CC2)C1=O)C=3C=CC=CC3] | – | – | 88 ± 4 | – | – | 0.9 % of Cmp 1a and -12.1 % of Cmp 1a | 17.5 % of Cmp 1a and 11.9 % of Cmp 1a | 52.6 % of Cmp 1a and 31.9 % of Cmp 1a | 71 % of Cmp 1a and 78 % of Cmp 1a and 63 % of Cmp 1a | 91 % of Cmp 1a and 74 % of Cmp 1a and 86 % of Cmp 1a | 75 % of Cmp 1a and 51 % of Cmp 1a and 76 % of Cmp 1a | 60 % of Cmp 1a and 41 % of Cmp 1a and 50 % of Cmp 1a | 23 % of Cmp 1a (2×) and 24 % of Cmp 1a | 16 % of Cmp 1a (2×) and 0.619 % of Cmp 1a | 11 % of Cmp 1a | 9 % of Cmp 1a and 2.21 % of Cmp 1a and 7 % of Cmp 1a | 3.64 % of Cmp 1a and 0.518 % of Cmp 1a and 5.27 % of Cmp 1a | 13 % of Cmp 1a and 0.00547 % of Cmp 1a and 8 % of Cmp 1a | 7 % of Cmp 1a and -1.29 % of Cmp 1a and 10 % of Cmp 1a | 71 % of Cmp 1a and 78 % of Cmp 1a and 63 % of Cmp 1a | EC50 [18]: 3600 nM
